Earlier results, collected in patent US10864317B2, “Time controlled periodic infusion” (Ferrosan Medical Devices A/S, priority 2014, dated 2020).

System: peripheral nerve
Conditions: ropivacaine as LA; dependent on regional and individual differences

For `CCCN1CCCC[C@H]1C(=O)Nc1c(C)cccc1C` [ropivacaine], which “duration of pain relief for nerve blocks” value is on record?
Its value is “about 12 h”.
